{
  "source": "patent US4138480A",
  "about": "“Novel anthracycline glycosides and methods of preparing the same” (priority 1976, dated 1979)",
  "key": {"[1]": {"tested_on": "leukemia P-338 of the mouse", "test": "Therapeutic activity in leukemia P-338 of the mouse", "type": "in vivo", "conditions": "0 mg/kg 11 days"}, "[2]": {"test": "Passage of hematoencephalic and intestinal barriers", "conditions": "in vivo"}, "[3]": {"tested_on": "spleen weight and immunocompetent cells", "test": "Comparative testing of immunosuppressive properties (spleen weight, immunocompetent cells)"}, "[4]": {"biological_target": "T1, ATPase sodium-potassium dependent enzyme (Na-K ATPase) (Oryctolagus cuniculus, UniProt Q9N0Z6)", "T1 construct": "isolated from rabbit heart; from tissue; host or cells: rabbit heart", "test": "Activity of the ATPase Na-K dependent enzyme isolated from rabbit heart", "type": "biochemical", "text": "(§1) From these facts, it can be deduced, on the basis of the results of Table I as well, that the metallic derivative of doxorubicin formed with the metal proportion 2:1 or higher, lacks the inhibiting effect on the Na-K ATPase, that is to say, they would lack cardiotoxicity. […] The remaining chelates described herein may be expected to behave similarly. […] The compounds have the structure depicted in Formula I wherein R is as in Formula II and R1 is as given."}, "[5]": {"tested_on": "leukemia 1210 mouse cells", "test": "Inhibition of DNA synthesis of leukemia 1210 mouse cells", "type": "cell-based", "conditions": "read-out: Percent of Inhibition of DNA Synthesis"}, "[6]": {"conditions": "cumulative doses; cited from earlier work"}, "rabbit electrocardiogram": {"tested_on": "rabbit electrocardiogram", "test": "Electrocardiographic alterations after intravenous injection to the rabbit"}, "[7]": {"test": "Toxicity: survivors after one intraperitoneal injection in mice", "conditions": "mouse, in vivo, ip", "protocol": "The drugs were administered by only one intraperitoneal injection to groups of ten mice and the numbers of survivors were recorded after eight days."}, "leucocytes": {"tested_on": "leucocytes", "test": "Hematological toxicity, leucocyte count", "type": "in vivo", "conditions": "day 7, day 0 4.700"}, "Na-K ATPase": {"biological_target": "Na-K ATPase (Oryctolagus cuniculus, UniProt Q9N0Z6)", "test": "50% inhibition of Na-K ATPase by doxorubicin analogs", "type": "biochemical", "conditions": "read-out: Concentration for 50% Inhibition NaK ATPase", "text": "as §1"}, "[8]": {"conditions": "read-out: Percent of the ATPase Na-K Dependent Activity"}},
  "note": "“Also recorded” adds a separate entry of the source.",
  "data": [
    {"smiles": "COc1cccc2c1C(=O)c1c(O)c3c(c(O)c1C2=O)C[C@@](O)(C(=O)CO)C[C@@H]3O[C@H]1C[C@H](N)[C@H](O)[C@H](C)O1", "note": "[Doxorubicin]", "values": [
      {"measurement": "Days of Mean Survival of Leukemic Mice", "setting": "[1]; 4 mg/kg i.p.", "value": 50, "unit": "days"},
      {"measurement": "Days of Mean Survival of Leukemic Mice", "setting": "[1]; 8 mg/kg i.p.", "value": 48, "unit": "days"},
      {"measurement": "Days of Mean Survival of Leukemic Mice", "setting": "[1]; 12 mg/kg i.p.", "value": 42, "unit": "days"},
      {"measurement": "Days of Mean Survival of Leukemic Mice", "setting": "[1]; 24 mg/kg i.p.", "value": 6, "unit": "days"},
      {"measurement": "Days of Mean Survival of Leukemic Mice", "setting": "[1]; 36 mg/kg i.p.", "value": 4, "unit": "days"},
      {"measurement": "passing both hematoencephalic and intestinal barriers", "setting": "[2]", "value": "does not to an effective degree"},
      {"measurement": "immunosuppression (spleen weight and immunocompetent cells)", "setting": "[3]", "value": "depressed spleen weight and immunocompetent cells to a significant extent"},
      {"measurement": "effect of calcium on ATPase inhibition", "setting": "[4]", "value": "counteracted by calcium"},
      {"measurement": "inhibition of Na-K ATPase, in words", "setting": "[4]", "value": "strong inhibitor; also recorded: potent inhibitor"},
      {"measurement": "activity at 10 pM", "setting": "[4]; [8]", "value": 40, "unit": "%"},
      {"measurement": "activity at 0.001 µM", "setting": "[4]; [8]", "value": 25, "unit": "%"},
      {"measurement": "activity at 0.1 µM", "setting": "[4]; [8]", "value": 25, "unit": "%"},
      {"measurement": "activity at 10 µM", "setting": "[4]; [8]", "value": 25, "unit": "%"},
      {"measurement": "activity at 100 fM", "setting": "[4]; [8]", "value": 65, "unit": "%"},
      {"measurement": "inhibition at 3 µM", "setting": "[5]; 3 μM", "value": 60, "unit": "%"},
      {"measurement": "inhibition at 5 µM", "setting": "[5]; 5 μM", "value": 68, "unit": "%"},
      {"measurement": "inhibition at 7.5 µM", "setting": "[5]; 7.5 μM", "value": 75, "unit": "%"},
      {"measurement": "inhibition at 10 µM", "setting": "[5]; 10 μM", "value": 90, "unit": "%"},
      {"measurement": "cumulative dose attended by severe, oftentimes lethal cardiotoxicity", "setting": "[6]", "value": "> 500", "unit": "mg. per square meter"},
      {"measurement": "alterations of the electrocardiogram, in words", "setting": "rabbit electrocardiogram", "value": "very intense"},
      {"measurement": "survival at 192 h", "setting": "[7]; 10 mg/kg", "value": 100, "unit": "%"},
      {"measurement": "survival at 192 h", "setting": "[7]; 20 mg/kg", "value": 60, "unit": "%"},
      {"measurement": "survival at 192 h", "setting": "[7]; 30 mg/kg", "value": 0, "unit": "%"},
      {"measurement": "survival at 192 h", "setting": "[7]; 40 mg/kg", "value": 0, "unit": "%"},
      {"measurement": "survival at 192 h", "setting": "[7]; 50 mg/kg", "value": 0, "unit": "%"},
      {"measurement": "survival at 192 h", "setting": "[7]; 60 mg/kg", "value": 0, "unit": "%"},
      {"measurement": "Leucocyte Count/mm^3", "setting": "leucocytes; 10 mg/kg", "value": "3.300 /mm^3"},
      {"measurement": "Leucocyte Count/mm^3", "setting": "leucocytes; 20 mg/kg", "value": "2.400 /mm^3"}
    ]},
    {"smiles": "CCCCC(=O)NN=C(C)[C@]1(O)Cc2c(O)c3c(c(O)c2[C@@H](O[C@H]2C[C@H](N)[C@H](O)[C@H](C)O2)C1)C(=O)c1c(OC)cccc1C3=O", "note": "[NSC-211391]", "values": [
      {"measurement": "IC50", "setting": "Na-K ATPase", "value": 1000, "unit": "nM"}
    ]},
    {"smiles": "COc1cccc2c1C(=O)c1c(O)c3c(c(O)c1C2=O)C[C@@](O)(C(CO)=NNC(=O)c1ccccc1)C[C@@H]3O[C@H]1C[C@H](N)[C@H](O)[C@H](C)O1", "note": "[NSC-216071]", "values": [
      {"measurement": "IC50", "setting": "Na-K ATPase", "value": 10000, "unit": "nM"}
    ]},
    {"smiles": "COc1ccc(C(=O)NN=C(C)[C@]2(O)Cc3c(O)c4c(c(O)c3[C@@H](O[C@H]3C[C@H](N)[C@H](O)[C@H](C)O3)C2)C(=O)c2c(OC)cccc2C4=O)cc1", "note": "[NSC-219976]", "values": [
      {"measurement": "IC50", "setting": "Na-K ATPase", "value": 1, "unit": "nM"}
    ]},
    {"smiles": "COc1cccc2c1C(=O)c1c(O)c3c(c(O)c1C2=O)C[C@@](O)(C(C)=NNC(=O)c1ccc(O)cc1)C[C@@H]3O[C@H]1C[C@H](N)[C@H](O)[C@H](C)O1", "note": "[NSC-221264]", "values": [
      {"measurement": "IC50", "setting": "Na-K ATPase", "value": 0.1, "unit": "nM"}
    ]},
    {"smiles": "COc1cccc2c1C(=O)c1c(O)c3c(c(O)c1C2=O)C[C@@](O)(C(C)=NNC(=O)c1ccc([N+](=O)[O-])cc1)C[C@@H]3O[C@H]1C[C@H](N)[C@H](O)[C@H](C)O1", "note": "[NSC-221265]", "values": [
      {"measurement": "IC50", "setting": "Na-K ATPase", "value": 10000, "unit": "nM"}
    ]},
    {"smiles": "COc1cccc2c1C(=O)c1c(O)c3c(c(O)c1C2=O)C[C@@](O)(/C(C)=N/NC(=O)c1ccc(Cl)c(Cl)c1)C[C@@H]3OC1CC(N)C(O)C(C)O1", "note": "(stereo partly shown) [NSC-221266]", "values": [
      {"measurement": "IC50", "setting": "Na-K ATPase", "value": 1000, "unit": "nM"}
    ]},
    {"smiles": "COc1cccc2c1C(=O)c1c(O)c3c(c(O)c1C2=O)C[C@@](O)(C(C)=NNC(=O)c1ccc(N(C)C)cc1)C[C@@H]3O[C@H]1C[C@H](N)[C@H](O)[C@H](C)O1", "note": "[NSC-227013]", "values": [
      {"measurement": "IC50", "setting": "Na-K ATPase", "value": 0.1, "unit": "nM"}
    ]},
    {"smiles": "CCc1ccc(C(=O)N/N=C(\\C)[C@]2(O)Cc3c(O)c4c(c(O)c3[C@H](O[C@H]3C[C@H](N)[C@H](O)[C@H](C)O3)C2)C(=O)c2c(OC)cccc2C4=O)cc1", "note": "[NSC-233854]", "values": [
      {"measurement": "IC50", "setting": "Na-K ATPase", "value": 100, "unit": "nM"}
    ]},
    {"smiles": "CCCOc1ccc(C(=O)NN=C(C)[C@]2(O)Cc3c(O)c4c(c(O)c3[C@@H](O[C@H]3C[C@H](N)[C@H](O)[C@H](C)O3)C2)C(=O)c2c(OC)cccc2C4=O)cc1", "note": "[NSC-234740]", "values": [
      {"measurement": "IC50", "setting": "Na-K ATPase", "value": 10, "unit": "nM"}
    ]},
    {"smiles": "COc1cccc2c1C(=O)c1c(O)c3c(c(O)c1C2=O)CC(O)(/C(C)=N/NC(=O)c1ccc(-c2ccccc2)cc1)CC3OC1CC(N)C(O)C(C)O1", "note": "(stereo not shown) [NSC-236672]", "values": [
      {"measurement": "IC50", "setting": "Na-K ATPase", "value": 1, "unit": "nM"}
    ]},
    {"smiles": "COC(=O)[C@]1(O)Cc2c(O)c3c(c(O)c2[C@@H](O[C@H]2C[C@H](N)[C@H](O)[C@H](C)O2)C1)C(=O)c1c(OC)cccc1C3=O", "note": "[NSC-237638]", "values": [
      {"measurement": "IC50", "setting": "Na-K ATPase", "value": 1, "unit": "nM"}
    ]},
    {"smiles": "COc1cccc2c1C(=O)c1c(O)c3c(c(O)c1C2=O)C[C@@](O)(/C(CO)=N/NC(=O)c1ccc(Cl)c(Cl)c1)C[C@@H]3OC1CC(N)C(O)C(C)O1", "note": "(stereo partly shown) [NSC-237672]", "values": [
      {"measurement": "IC50", "setting": "Na-K ATPase", "value": 10000, "unit": "nM"}
    ]}
  ]
}
